Experimental data as given in US7307166B1, “Oxpurine nucleosides and their congeners, and acyl, derivatives thereof, for improvement of hematopoiesis” (Wellstat Therapeutics Corporation, priority 1987, dated 2007).

Assays:
[1] = tested on: Balb/C female mice; test: Hematopoietic recovery after cyclophosphamide in mice (spleen weight, blood cell counts); assay type: in vivo, mouse
[2] = tested on: Balb/C female mice; test: Hematopoietic recovery after 5-fluorouracil in mice; assay type: in vivo, mouse
Experimental: 5-fluorouracil (5-FU) (150 mg/kg, i.p.) was administered to forty Balb/C female mice weighing approximately 20 grams each. Twenty-four hours later and each day thereafter for a total of 8 days, mice were given a 0.4 ml i.p. injection of either physiological saline (controls) or 5′-O-palmitoylguanosine (2.5 μmoles/mouse/day in 0.2% Tween 80). On days 7 and 14 following 5-FU administration half of the animals from each group were bled and then were sacrificed by cervical dislocation. Spleens were removed and weighed, and complete blood cells counts performed.
5-fluorouracil (5-FU) (150 mg/kg, i.p.) was administered to fifty-four Balb/C female mice weighing approximately 20 grams each. Twenty-four hours later and each day thereafter for a total of 7 days, mice were given a 0.4 ml i.p. injection of either physiological saline (controls) or palmitoylguanosine (2.5 μmoles/mouse/day in 0.2% Tween 80). On days 8, 10 and 12 following administration of 5-FU nine animals from each group were bled and then sacrificed by cervical dislocation. Spleens were removed and weighed, and complete blood cell counts performed.
Twenty-eight female Balb/C mice weighing approximately 20 grams each received a 0.4 ml i.p. injection of either physiological saline (controls), or palmitoyldeoxyguanosine (1 μmole/mouse) daily for three days. On the fourth day 5-fluorouracil (5-FU) (150 mg/kg, i.p.) was administered to all 28 of the animals. On days 5, 8 and 11 following 5-FU administration 4 (day 5) or 5 (days 8 and 11) animals from both groups were bled and then sacrificed by cervical dislocation. Spleens were removed and weighed, and complete blood cell counts performed. […]
Sixty female Balb/C mice weighing approximately 20 grams each were distributed into one of five treatment groups and treated once daily for three days by i.p. injection with 3′,5′-O—N^2-tripalmitoyl-2′-deoxyguanosine at a dose of either 1, 5, 10, 25, or 50 mg/kg/treatment in a Tween-DMSO vehicle (0.2% Tween-80 and 7.5% DMSO in physiological saline). Injection volume was 0.4 ml. An additional twelve animals (controls) received vehicle alone on those three days. On the fourth day all seventy-two animals received a single i.p. injection of 5-fluorouracil (5-FU) at a dose of 150 mg/kg. On days 7 and 10 following 5-FU administration six mice from each group were bled and then sacrificed by cervical dislocation. Six untreated mice were also bled and sacrificed to provide data on normal (basal) values. Spleens were removed and weighed, and complete blood cell counts performed.

[3] = tested on: female Balb/C mice; test: Cecal ligation and puncture (CLP) polymicrobial sepsis survival; assay type: in vivo, mouse; conditions: 25 mg/kg i.p. daily 3 days prior to CLP
Experimental: N^2,3′,5′-tripalmitoyldeoxyguanosine (PdG) stimulates neutrophil production. Since neutrophils are important in defense against bacteria, PdG was tested for beneficial effects in bacterial sepsis. Bacterial infection as a consequence of the immunocompromising effects of radiotherapy or chemotherapy is an important cause of mortality in cancer patients. The potential utility of PdG was evaluated in the cecal ligation and puncture model (CLP), a model of polymicrobial sepsis in which the cecum of an animal is tied off without otherwise obstructing intestinal flow, and then punctured to allow fecal matter trapped in the cecum to leak into the peritoneal cavity (O'Reilly, et al. Journal of Trauma, 33:679-682). This release causes peritonitis as well as subsequent bacteremia, shock, and mortality. The CLP model is a particularly rigorous challenge because it creates a severe and complex polymicrobial sepsis due to both Gram-negative and Gram-positive bacteria. The CLP model is analogous to a ruptured appendix or punctured intestine in humans.
36 female Balb/C mice were employed. The mice were randomly assigned to one of three groups of twelve mice each. Two groups were treated once per day for three days prior to CLP by i.p. injection with either 25 mg/kg PdG or with vehicle alone. One group underwent the CLP procedure but received no other treatment. Survival was monitored for 60 days after CLP.

[4] = tested on: interleukin-1-alpha; test: LPS-induced elevation of serum interleukin-1-alpha; assay type: in vivo, mouse; conditions: PdG 25 mg/kg i.p.
Experimental: Sixty-three female Balb/C mice were randomly assigned to one of three groups. The animals in one group received a single daily dose of N^2,3′,5′-tripalmitoyldeoxyguanosine (PdG) (25 mg/kg, i.p.), while a second group received a single daily dose of the PdG treatment vehicle (control). The third group was left untreated. On the fourth day 100 μg salmonella typhimurium LPS was administered to all three groups. Serum samples were taken just prior to LPS administration (t=0) and at two, four, six, eight, ten, twelve, sixteen, and twenty hours after LPS administration. The samples were then frozen until the time of assay. Serum levels of TNF-alpha, and IFN-gamma were measured by ELISA.
PdG also attenuated LPS-induced elevation of serum interleukin-1-alpha and interleukin-6.

[5] = tested on: normal mouse bone marrow cells; test: Proliferation of bone marrow cells in long-term culture; assay type: cell-based; conditions: 10 micrograms per ml
Experimental: Bone marrow cells from the femurs of B6D2F1 mice were used to establish long-term marrow cultures. After four weeks, when the stromal layer was confluent, the culture was treated with microphenolic acid in order to remove all cells from the stroma. New normal bone marrow cells (1×10^5/ml) from the same source were then used to “recharge” the stromal layer. Palmitoyldeoxyguanosine was added to half of the cultures at a concentration of 10 micrograms per ml. […] On days 4 and 7 cells from the culture were removed, washed, and replated in methylcellulose. The number of granulo-monocytic colonies was counted one week later.

[6] = Ex 47: day 7 after CP, 2.5 μmoles/mouse/day
[7] = Ex 53: day 5 after CP, palmitoylguanosine 2.0, palmitoyldeoxyguanosine 1.0 μmoles/mouse
[8] = Ex 53: day 7 after CP, palmitoylguanosine 1.0 and 2.0, palmitoyldeoxyguanosine 1.0 μmoles/mouse
[9] = Table 5 (Ex 62): 5 days after CP
[10] = Table 6 (Ex 62): 7 days after CP
[11] = Table 7 (Ex 63): 5 days after CP
[12] = Table 8 (Ex 63): 7 days after CP
[13] = Table 9: 7 days after 5-FU, 10 mg/kg pretreatment
[14] = Table 9: 7 days after 5-FU, 25 mg/kg pretreatment
[15] = Table 9: 7 days after 5-FU, 50 mg/kg pretreatment
[16] = Table 10: 10 days after 5-FU, 5 mg/kg pretreatment
[17] = Table 10: 10 days after 5-FU, 10 mg/kg pretreatment
[18] = Table 10: 10 days after 5-FU, 25 mg/kg pretreatment
[19] = Table 10: 10 days after 5-FU, 50 mg/kg pretreatment

Compound: CCCCCCCCCCCCCCCC(=O)OC[C@H]1O[C@@H](n2cnc3c(=O)[nH]c(N)nc32)[C@H](O)[C@@H]1O
- white blood cell (WBC) counts ([1]; Ex 38: day 7 after CP, guanosine 5, acyl derivatives 2.5 μmoles/mouse/day in 0.2% Tween 80): greatest effect
- spleen weight ([1]; Ex 41: day 7 after CP, 5 μmoles/mouse/day in 0.2% Tween 80 on days 1-2, 1-4, 3-5, 4-6 or 1-6, vs saline): significantly greater
- Total white blood cell (WBC) counts ([1]; Ex 41: day 7 after CP, 5 μmoles/mouse/day, each timing group, vs saline): significantly greater
- lymphocyte counts ([1]; Ex 41: day 7 after CP, treatment on days 1-2 or 1-6): elevated
- total neutrophil counts ([1]; Ex 41: day 7 after CP, treatment on days 1-6): greatest increase
- Neutrophils [1, 6]: significantly elevated
- spleen weight [1, 6]: significantly elevated
- total white blood cells ([1]; Ex 47: day 7 after CP, 2.5 μmoles/mouse/day in 0.2% Tween 80 i.p. 6 days): significantly elevated
- spleen weight ([1]; Ex 50: day 5 after CP, 2 μmoles/mouse): significantly elevated
- total neutrophil counts ([1]; Ex 53: day 5 after CP, 1.0 μmoles/mouse): significantly increased
- spleen weight [1, 7]: significantly elevated
- total neutrophil counts [1, 7]: significantly elevated
- white blood cell counts [1, 7]: significantly elevated
- spleen weight [1, 8]: significantly elevated
- total neutrophil counts [1, 8]: significantly elevated
- white blood cell counts [1, 8]: significantly elevated
- spleen weight ([2]; Ex 42: day 7 after 5-FU 150 mg/kg, 2.5 μmoles/mouse/day in 0.2% Tween 80 i.p. 8 days): slight, but statistically significant, increase
- Lymphocytes ([2]; Ex 42: day 14 after 5-FU): significantly higher
- Neutrophils ([2]; Ex 42: day 14 after 5-FU): significantly higher
- Platelets ([2]; Ex 42: day 14 after 5-FU): significantly higher
- spleen weight ([2]; Ex 42: day 14 after 5-FU): significantly heavier
- total leukocytes ([2]; Ex 42: day 14 after 5-FU): significantly higher
- number of platelets ([2]; Ex 43: day 8 after 5-FU, 2.5 μmoles/mouse/day in 0.2% Tween 80 i.p. 7 days): significantly greater
- number of platelets ([2]; Ex 43: day 10 after 5-FU): greater numbers
- spleen size ([2]; Ex 43: day 10 after 5-FU): significantly larger
- number of neutrophils vs control ([2]; Ex 43: day 12 after 5-FU): 3 fold
- spleen weight vs control mice ([2]; Ex 43: day 12 after 5-FU): more than double

Compound: CCCCCCCCCCCCCCCC(=O)Nc1nc2c(ncn2[C@H]2C[C@H](OC(=O)CCCCCCCCCCCCCCC)[C@@H](COC(=O)CCCCCCCCCCCCCCC)O2)c(=O)[nH]1 [PdG, 3′,5′-O-N^2-tripalmitoyl-2′-deoxyguanosine]
- mice alive ([3]; 72 hours after CLP): All
- animals surviving / total ([3]; 60 day observation period): 10/12
- survival ([3]; 60 day observation period): 83%
- LPS-induced elevation of serum interleukin-1-alpha [4]: attenuated
- Neutrophils [1, 9]: 2.5 ± .3 K/μl
- WBC [1, 9]: 4.1 ± .4 K/μl
- Spleen ([1]; Table 5 (Ex 62): 5 days after CP 250 mg/kg, triPdG 25 mg/kg/treatment, diPdG molar equivalent, i.p. daily): 77 ± 7 mg
- Neutrophils [1, 10]: 9.9 ± .9 K/μl
- Platelets [1, 10]: 549 ± 25 K/μl
- WBC [1, 10]: 13.4 ± .4 K/μl
- Spleen ([1]; Table 6 (Ex 62): 7 days after CP, triPdG 25 mg/kg, diPdG molar equivalent, daily 5 days): 156 ± 12 mg
- Neutrophils [1, 11]: 0.6 ± .1 K/μl
- WBC [1, 11]: 3.6 ± .4 K/μl
- Spleen ([1]; Table 7 (Ex 63): 5 days after CP 250 mg/kg, TriPdG 25 mg/kg/treatment, others molar equivalent, i.p. daily): 73 ± 3 mg
- Neutrophils [1, 12]: 7.3 ± .3 K/μl
- Platelets [1, 12]: 674 ± 37 K/μl
- WBC [1, 12]: 3.6 ± .4 K/μl
- Spleen ([1]; Table 8 (Ex 63): 7 days after CP, TriPdG 25 mg/kg, others molar equivalent, daily 5 days): 198 ± 23 mg
- Platelets ([2]; Table 9: 7 days after 5-FU, 5 mg/kg pretreatment): 682 ± 66 K/μl
- Platelets [2, 13]: 571 ± 41 K/μl
- Spleen [2, 13]: 83 ± 6 mg
- Platelets [2, 14]: 587 ± 19 K/μl
- Spleen [2, 14]: 93 ± 5 mg
- Platelets [2, 15]: 596 ± 43 K/μl
- Spleen [2, 15]: 102 ± 4 mg
- Neutrophils ([2]; Table 10: 10 days after 5-FU, 1 mg/kg pretreatment): 0.4 ± .2 K/μl
- Neutrophils [2, 16]: 1.6 ± .4 K/μl
- Spleen [2, 16]: 157 ± 13 mg
- Neutrophils [2, 17]: 1.8 ± .4 K/μl
- Spleen [2, 17]: 169 ± 24 mg
- Lymphocytes [2, 18]: 8.3 ± .4 K/μl
- Neutrophils [2, 18]: 2.9 ± .4 K/μl
- Spleen [2, 18]: 293 ± 17 mg
- WBC [2, 18]: 11.4 ± .6 K/μl
- Lymphocytes [2, 19]: 8.3 ± 1.0 K/μl
- Neutrophils [2, 19]: 2.2 ± .5 K/μl
- Spleen [2, 19]: 320 ± 39 mg
- WBC [2, 19]: 10.8 ± 1.6 K/μl
- Cells ([5]; day 1): 1.9 ± .13 10^6/flask
- Cells ([5]; day 3): 2.9 ± .10 10^6/flask
- CFU-GM/flask ([5]; day 4): 5123 ± 561
- Cells ([5]; day 5): 7.7 ± .2 10^6/flask
- CFU-GM/flask ([5]; day 7): 33903 ± 9457
- Cells ([5]; day 7): 4.3 ± .15 10^6/flask
